PubChem BioAssay (NCI)
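Assay format: 96-well plates, 48-hour exposure. At the TGI there is no net growth.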

How the values were obtained:
Assay in all cases: NCI anticancer screen, dose series, 48 h
SNB-78 CNS = system: SNB-78 CNS
HOP-18 NSCLC = system: HOP-18 NSCLC
LXFL 529 NSCLC = system: LXFL 529 NSCLC
DLD-1 colon = system: DLD-1 colon
DMS 273 small cell lung = system: DMS 273 small cell lung
DMS 114 small cell lung = system: DMS 114 small cell lung
KM20L2 colon = system: KM20L2 colon
M19-MEL melanoma = system: M19-MEL melanoma
XF 498 CNS = system: XF 498 CNS
RXF-631 renal = system: RXF-631 renal

Question: With `CNC(C)Cc1ccccc1O` (configuration not stated) as the compound, how does the TGI (SNB-78 CNS) read?
Answer: Its TGI is > 100 µM.

Question: And the TGI (HOP-18 NSCLC)?
Answer: Its TGI is > 100 µM.

Question: What about the TGI (LXFL 529 NSCLC) of the same compound?
Answer: The TGI was > 100 µM.

Question: What about the TGI (DLD-1 colon) of the same compound?
Answer: The TGI was > 100 µM.

Question: And the TGI (DMS 273 small cell lung)?
Answer: The TGI was > 100 µM.

Question: And the TGI (DMS 114 small cell lung)?
Answer: Its TGI is > 100 µM.

Question: And the TGI (KM20L2 colon)?
Answer: The TGI was > 100 µM.

Question: With `CCCCCCCC(=O)OC[C@@H](C[As](=O)(O)O)OC(=O)CCCCCCC` as the compound, how does the TGI (SNB-78 CNS) read?
Answer: Its TGI is 30.8 µM.

Question: What about the TGI (HOP-18 NSCLC) of the same compound?
Answer: The TGI was 44.1 µM.

Question: What about the TGI (LXFL 529 NSCLC) of the same compound?
Answer: Its TGI is 25.3 µM.

Question: And the TGI (M19-MEL melanoma)?
Answer: Its TGI is 31 µM.

Question: And the TGI (DLD-1 colon)?
Answer: Its TGI is 27.5 µM.

Question: What about the TGI (DMS 273 small cell lung) of the same compound?
Answer: Its TGI is 26.1 µM.

Question: What about the TGI (DMS 114 small cell lung) of the same compound?
Answer: Its TGI is 22.3 µM.

Question: What about the TGI (KM20L2 colon) of the same compound?
Answer: Its TGI is 31.2 µM.

Question: Which results are given for `O=S1(=O)NNC(=NCc2ccc(Cl)c(Cl)c2)c2ccccc21`?
Answer: TGI (SNB-78 CNS): > 100 µM; TGI (HOP-18 NSCLC): > 100 µM; TGI (LXFL 529 NSCLC): > 100 µM; TGI (M19-MEL melanoma): > 100 µM; TGI (DLD-1 colon): > 100 µM; TGI (DMS 273 small cell lung): > 100 µM; TGI (DMS 114 small cell lung): > 100 µM; TGI (KM20L2 colon): > 100 µM

Question: Which results are given for `COc1cc2cc[n+](C)c(Cc3ccccc3)c2cc1OC`?
Answer: TGI (SNB-78 CNS): > 100 µM; TGI (HOP-18 NSCLC): > 100 µM; TGI (LXFL 529 NSCLC): > 100 µM; TGI (M19-MEL melanoma): > 100 µM; TGI (DMS 273 small cell lung): > 100 µM; TGI (DMS 114 small cell lung): > 100 µM; TGI (KM20L2 colon): > 100 µM

Question: Which results are given for `O=C1CSC(/C(=C/c2ccccc2)c2nc3ccccc3[nH]2)=N1`?
Answer: TGI (SNB-78 CNS): > 100 µM; TGI (XF 498 CNS): > 100 µM; TGI (LXFL 529 NSCLC): > 100 µM; TGI (M19-MEL melanoma): > 100 µM; TGI (DLD-1 colon): > 100 µM; TGI (DMS 114 small cell lung): > 100 µM; TGI (KM20L2 colon): > 100 µM

Question: `CC12CCC([C@H](N3CCOCC3)/C1=N\OCCN1CCCC1)C2(C)C` (some centres not stated) was tested. Which TGI (SNB-78 CNS) did it give?
Answer: The TGI was > 100 µM.

Question: What about the TGI (HOP-18 NSCLC) of the same compound?
Answer: Its TGI is > 100 µM.

Question: What about the TGI (LXFL 529 NSCLC) of the same compound?
Answer: The TGI was > 100 µM.

Question: And the TGI (M19-MEL melanoma)?
Answer: Its TGI is > 100 µM.

Question: What about the TGI (DLD-1 colon) of the same compound?
Answer: Its TGI is > 100 µM.

Question: And the TGI (RXF-631 renal)?
Answer: The TGI was > 100 µM.

Question: What about the TGI (DMS 273 small cell lung) of the same compound?
Answer: The TGI was > 100 µM.

Question: What about the TGI (DMS 114 small cell lung) of the same compound?
Answer: The TGI was > 100 µM.

Question: What about the TGI (KM20L2 colon) of the same compound?
Answer: Its TGI is > 100 µM.

Question: How did the TGI (SNB-78 CNS) turn out when `COc1ccc(-c2cnoc2-c2ccc(OC)c(OC)c2)cc1OC` was run?
Answer: The TGI was > 26.8 µM.

Question: What about the TGI (HOP-18 NSCLC) of the same compound?
Answer: The TGI was > 59.5 µM.

Question: And the TGI (XF 498 CNS)?
Answer: The TGI was 9.99 µM.

Question: What about the TGI (LXFL 529 NSCLC) of the same compound?
Answer: Its TGI is > 100 µM.

Question: What about the TGI (M19-MEL melanoma) of the same compound?
Answer: Its TGI is 11.3 µM.

Question: And the TGI (DLD-1 colon)?
Answer: The TGI was > 63.7 µM.

Question: What about the TGI (DMS 273 small cell lung) of the same compound?
Answer: The TGI was 2.02 µM.

Question: What about the TGI (DMS 114 small cell lung) of the same compound?
Answer: Its TGI is 2.23 µM.

Question: What about the TGI (KM20L2 colon) of the same compound?
Answer: The TGI was > 22.4 µM.

Question: Which TGI (SNB-78 CNS) does the source give for `O=c1[nH][nH]c(=O)[nH]1` here?
Answer: Its TGI is > 100 µM.

Question: And the TGI (XF 498 CNS)?
Answer: Its TGI is > 100 µM.

Question: What about the TGI (M19-MEL melanoma) of the same compound?
Answer: The TGI was > 100 µM.

Question: What about the TGI (DLD-1 colon) of the same compound?
Answer: The TGI was > 100 µM.

Question: And the TGI (DMS 273 small cell lung)?
Answer: Its TGI is > 100 µM.

Question: What about the TGI (KM20L2 colon) of the same compound?
Answer: The TGI was > 100 µM.

Question: What does the source list for `C=CCC1C(=O)C(C(=O)OC)N2CCc3c([nH]c4ccccc34)C12` (configuration not stated)?
Answer: TGI (LXFL 529 NSCLC): > 100 µM; TGI (M19-MEL melanoma): > 100 µM; TGI (DLD-1 colon): > 100 µM; TGI (DMS 114 small cell lung): > 100 µM; TGI (KM20L2 colon): > 100 µM

Question: With `COc1ccc(N(C)CN(C)c2nc(N(C)C)nc(N(C)C)n2)cc1` as the compound, how does the TGI (SNB-78 CNS) read?
Answer: The TGI was > 100 µM.

Question: What about the TGI (HOP-18 NSCLC) of the same compound?
Answer: The TGI was > 100 µM.

Question: What about the TGI (LXFL 529 NSCLC) of the same compound?
Answer: The TGI was > 100 µM.

Question: And the TGI (M19-MEL melanoma)?
Answer: Its TGI is > 100 µM.

Question: And the TGI (DLD-1 colon)?
Answer: The TGI was > 100 µM.

Question: What about the TGI (DMS 273 small cell lung) of the same compound?
Answer: Its TGI is > 100 µM.

Question: And the TGI (DMS 114 small cell lung)?
Answer: The TGI was > 100 µM.

Question: What about the TGI (KM20L2 colon) of the same compound?
Answer: Its TGI is > 100 µM.

Question: Which TGI (SNB-78 CNS) does the source give for `CC1(c2cccc3c2C2(O)C=CC4(CCC32)OCCO4)OCCO1` (configuration not stated) here?
Answer: The TGI was > 100 µM.

Question: And the TGI (HOP-18 NSCLC)?
Answer: Its TGI is > 100 µM.

Question: And the TGI (LXFL 529 NSCLC)?
Answer: Its TGI is > 100 µM.

Question: What about the TGI (M19-MEL melanoma) of the same compound?
Answer: Its TGI is > 100 µM.

Question: And the TGI (DLD-1 colon)?
Answer: The TGI was > 100 µM.

Question: What about the TGI (DMS 273 small cell lung) of the same compound?
Answer: Its TGI is > 100 µM.

Question: What about the TGI (DMS 114 small cell lung) of the same compound?
Answer: Its TGI is > 100 µM.

Question: And the TGI (KM20L2 colon)?
Answer: The TGI was > 100 µM.
